Data published in EP2251010A1, “Use of thiabendazole and derivatives thereof for the therapy of neurological conditions” (Sygnis Bioscience GmbH & Co. KG, priority 2009, dated 2010).
Read-outs that look alike come from different tables or passages of the source.

Tests used:
primary cortical neurons = assay: In vitro anti-apoptosis assay (Caspase-Glo 3/7) on primary cortical neurons with staurosporine; format: cell-based, Wistar rat; conditions: sham 11 %
Text: (§1) Neuroprotection is attainable via the inhibition of apoptosis of affected neurons. The anti-apoptotic effect of thiabendazole and its derivatives can be assayed in vitro by measuring the caspase-3 and caspase-7 activities. These members of the cysteine aspartic acid-specific protease (caspase) family play key effector roles in apoptosis in mammalian cells. Cortical neurons have to be isolated and subsequently cultivated in a suitable culture medium. […] Parallel approaches with staurosporine alone and sham treatment of the cells serve as […]. The assay allows evaluating whether the test compound can compensate either completely or partially for the apoptotic effect of staurosporine.
(§2) The neuroprotective effect of compounds can be assayed in vitro by measuring caspase-3 and caspase-7 activities. These members of the cysteine aspartic acid-specific protease (caspase) family play a key effector role in apoptosis in mammalian cells.
These cells were isolated from twelve to fourteen cortices dissected from Wistar rat embryos on E18. The tissue was dissociated using 0,25 mg/ml trypsin, 0,1 mg/ml EDTA (Sigma), 100 µg/ml DNase (Roche Diagnostics Corp.) in HBSS. The digestion was stopped using 3 parts MEM-medium containing 10 % fetal calf serum, 0,45 % D-(+)glucose, 1 mM sodium-pyruvate and 0,25 µM glutamate. The cells were singularized by 10 strokes with a burnished Pasteur-pipette. After centrifugation, the cell pellet was dissolved in 10 ml medium and plated at a density of 30000 cells per well on a 96-well plate coated with poly-L-lysine for caspase-assays. […] Incubation with staurosporine (SP; 0,5 µM) alone served as positive control and incubation with vehicle (sham) served as negative control.

SH-SY5Y cells [1] = assay: In vitro anti-apoptosis assay (Caspase-Glo 3/7) on SH-SY5Y cells with staurosporine; format: cell-based, human; conditions: for staurosporine induced apoptosis (caspase-3 and caspase-7 activity): sham 10 %
Text: as §1, §2
The human neuroblastoma cell-line SH-SY5Y (American Type Culture Collection) maintained in DMEM with high glucose supplemented with 20% FBS was used for the apoptosis assay. Alternatively one can analyse the apoptosis of primary cortical neurons which can be isolated from E18 rats and subsequently cultivated in suitable culture medium. 2,5 x 10^4 SH-SY5Y cells were seeded in 96-well plates and stimulated 24 h later with thiabendazole or vehicle in the presence of the apoptosis inducing compound staurosporine (0,1 µM, Calbiochem). After 5h incubation at 37 °C, caspase-Glo 3/7 reagent (Promega) containing luciferase and luminogenic substrate was added to the cells. The cleavage of the substrate by caspase-3 and caspase-7 was detected 30 min later using a luminometer (Berthold Technologies, Mithras LB 940). The Luminescence which is proportional to the amount of caspase activity serves as a measure for the apoptosis of the treated neurons. Thiabendazole was tested in a range from 0,8 µM to 100 µM final concentration.
Incubation with staurosporine (SP; 0,5 µM) alone served as positive control and incubation with vehicle (sham) served as negative control.

SH-SY5Y neuronal cells = assay: In vitro viability assay (constitutive Renilla luciferase reporter); format: cell-based, human; conditions: for viability of neuronal cells (Renilla luciferase activity): final concentration of 1 µM and of 10 µM, Fig. 7
Method: The viability assay allows for further assessment of test compounds regarding their effect on cells such as neurons. Therefore, a stably transfected cell line (e.g. SH-SY5Y cells) with a reporter construct (e.g. a luciferase construct) has to be incubated with the test compound and in parallel with positive and negative controls (e.g. staurosporine and sham, respectively). Subsequently, the signal generated by the reporter construct serves as a readout for the viability of the cells in the presence of the test compound. The assay enables the evaluation of potential neurotoxic effects of the test compound itself.
The effect of a compound on the viability of neuronal cells can be assayed in vitro by measuring the survival of neuronal cells transfected with a reporter construct under a constitutive promoter. SH-SY5Y neuronal cells stably transfected with a Renilla luciferase construct under the SV40 promoter were seeded in 96-well plates at a density of 2,5 x 10^4 cells per well. Following overnight incubation the cells were stimulated with medium containing thiabendazole or vehicle. Staurosporine (0,5 µM) served as positive control. The Renilla luciferase activity was measured 5 h later using a luminometer (Berthold Technologies, Mithras LB 940). Thiabendazole was tested in a range from 0,8 µM to 50 µM final concentration.
Analogously, thiabendazole (A; Sigma) and various derivatives thereof (2-(1,3-thiazol-5-yl)-benzimidazole (B; ChemBridge Corporation), 4-(benzimidazol-2-yl)-1,3-thiazol-2-amine (C; ChemBridge Corporation), 2-(2-thienyl)-benzimidazole (D; ChemBridge Corporation), or 2-(1,3-thiazol-4-yl)-benzimidazole-5-ol (E; Witega GmbH), Fig. 8) have been analysed for their effect on the viability of neuronal cells. The compounds were tested in a final concentration of 1 µM and of 10 µM.

SH-SY5Y cells [2] = assay: In vitro anti-apoptosis assay (Caspase-Glo 3/7) on SH-SY5Y cells with staurosporine; format: cell-based, human; conditions: for degree of apoptosis relative to the staurosporine control: SH-SY5Y cells, compound 1 µM plus staurosporine 0,5 µM, sham 26 %, Fig. 5
neural stem cells = assay: In vitro differentiation assay on adult neuronal stem cells (beta-III-tubulin promoter dual luciferase reporter); format: cell-based, Wistar rats
Text: The neuroregenerative effect of the compounds according to the present invention can be assayed in vitro by measuring their stimulation of the differentiation of neuronal stem cells. Therefore, adult neuronal stem cells have to be isolated and subsequently cultivated in a suitable culture medium. After several passages in vitro the stem cells have to be co-transfected with a DNA construct coding for two discriminable reporter proteins one of them under the control of a constitutive promoter and the other under the control of a beta-III-tubulin promoter. The beta-III-tubulin promoter is induced during the process of neuronal stem cell differentiation; therefore the reporter protein under the control of this promoter serves as a marker for the stem cell differentiation in such an in vitro dual reporter assay (Schneider et al., J Clin Investigation 2005; 115:2083-2098). The person skilled in the art knows several suitable constitutive promoters such as the SV40-promoter, the TK-promoter, or the CMV-promoter. As discriminable reporter proteins for such a dual reporter assay one can use discriminable luciferases such as firefly luciferase and Renilla luciferase. The transfected cells have to be incubated with the test compound and with positive and negative controls for normalization and background correction. As a positive control compound one can use retinoic acid (Guan et al., Cell Tissue Res. 2001; 305:171-176; Jacobs et al., Proc. Natl. Acad. Sci. USA 2006; 103:3902-3907), a suitable negative control is the sham treatment of the cells. The neroregenerative activity of the test compound is determined as the ratio of the signal of the beta-III-tubulin promoter controlled reporter versus the signal of the constitutively expressed reporter and is expressed as fold from the control. This assay is suitable to assess the neuroregenerative activity of thiabendazole and derivatives thereof, but also can be used to screen for other potential neuroregenerative compounds. Preferably, such a screening can be used to test compounds which are already known to be suitable as a medicament in terms of its toxicology, bioavailability, solubility, stability etc.
In vitro differentiation assay on adult neuronal stem cells with thiabendazole Neural stem cells were isolated from the subventricular zone of 4 week-old male Wistar rats as described (Maurer et al, Proteome Sci. 2003; 1:4). Cells were cultivated in Neurobasal medium (Invitrogen) supplemented with B27 (Invitrogen), 2mM L-glutamine, 100units/ml penicillin, 100units/ml streptomycin, 20ng/ml […] (EGF), 20ng/ml fibroblast growth factor-2 (FGF-2), and 2µg/ml heparin. Once a week the neural stem cells were passaged and experiments were performed after 4 weeks in vitro. For DNA transfection, the cells were dissociated and plated on poly-L-ornithin/laminin-coated 96-well plates at a density of 50.000 cells/well. Cotransfection with the pGL3-p-βIII-tubulin vector (100ng/well) and the pRL SV40 vector (100ng/well) was carried out according to the FuGene6 Transfection protocol (Roche). The pRL SV40 vector (Promega) served as an internal control vector.
To amplify the class III β-tubulin gene promoter (fragment -450 - +54), rat genomic DNA was used as a template for PCR (Dennis et al., Gene 2002;294:269-277). The amplified fragment was inserted into the Mlu I/Xho I site of the pGL3-Basic firefly luciferase reporter vector (Promega) to generate the pGL3-p-βIII-tubulin experimental vector.
After overnight incubation, the plate was decanted and given in 8-fold replicates fresh medium containing thiabendazole (Sigma) or vehicle. As a positive control for in vitro differentiation, stem cells were treated by adding 1 µM retinoic acid (Sigma) to the medium missing the mitogens.
After 48hrs, the cells were harvested to prepare the cellular extracts for luciferase assay following the directions of the manufacturer (Promega). […]

[3] = man, oral, in 48 hours; cited from earlier work
[4] = rat; cited from earlier work
[5] = rabbit; cited from earlier work
[6] = pH 7.0; cited from earlier work
[7] = biological target: cytochrom P450 1A2 (CyP1A2) (Homo sapiens, UniProt P05177); conditions: cited from earlier work
cytochrom P450 1A2 (CyP1A2), sequence (P05177 whole entry, species assumed): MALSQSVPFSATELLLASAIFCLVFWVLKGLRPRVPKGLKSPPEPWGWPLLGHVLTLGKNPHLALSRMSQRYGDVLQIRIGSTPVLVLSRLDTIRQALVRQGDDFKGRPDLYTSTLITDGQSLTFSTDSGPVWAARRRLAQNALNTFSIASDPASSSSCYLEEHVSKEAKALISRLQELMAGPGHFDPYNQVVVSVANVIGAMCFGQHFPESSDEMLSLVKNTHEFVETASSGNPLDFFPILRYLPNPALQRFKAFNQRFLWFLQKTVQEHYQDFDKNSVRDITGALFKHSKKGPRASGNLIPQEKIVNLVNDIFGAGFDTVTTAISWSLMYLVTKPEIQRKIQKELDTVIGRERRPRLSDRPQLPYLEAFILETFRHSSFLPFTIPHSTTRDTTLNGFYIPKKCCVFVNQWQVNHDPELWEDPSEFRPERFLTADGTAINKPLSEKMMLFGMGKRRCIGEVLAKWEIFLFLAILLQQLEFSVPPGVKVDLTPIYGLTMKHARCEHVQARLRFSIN

[8] = mouse; cited from earlier work
[9] = compound 1 µM plus staurosporine 0,5 µM, Fig. 6
[10] = final concentrations of 1 µM and 10 µM, Fig. 4

## CN[C@@H]1C[C@H]2O[C@@](C)([C@@H]1OC)n1c3ccccc3c3c4c(c5c6ccccc6n2c5c31)C(=O)NC4 [staurosporine]
Primary cortical neurons; staurosporine 0,5 µM alone (positive control)
  degree of apoptosis relative to the staurosporine control: 100%
SH-SY5Y cells [1]; 0,1 µM staurosporine alone (reference, set to 100 %)
  staurosporine induced apoptosis (caspase-3 and caspase-7 activity): 100%
SH-SY5Y cells [1]; SH-SY5Y cells, staurosporine 0,5 µM alone (positive control), sham 26 %
  degree of apoptosis relative to the staurosporine control: 100%

## Nc1nc(-c2nc3ccccc3[nH]2)cs1 [C, 4-(benzimidazol-2-yl)-1,3-thiazol-2-amine]
Primary cortical neurons; [9]
  degree of apoptosis relative to the staurosporine control: 52%
SH-SY5Y neuronal cells
  viability of neuronal cells (Renilla luciferase activity): did not show any significantly reduced viability
SH-SY5Y cells [2]
  degree of apoptosis relative to the staurosporine control: 46%
Neural stem cells; [10]
  differentiation of neural stem cells to neurons (relative induction of the class III β-tubulin gene promoter controlled luciferase signal): significantly stimulate the differentiation of neural stem cells to neurons

## c1ccc2[nH]c(-c3cscn3)nc2c1 [thiabendazole, 2-(4-thiazolyl)-benzimidazole]
[3]
  administered dose recovered from the feces: about 5%
  administered dose recovered from the urine: about 90%
[4]
  oral LD 50: 3,1 g/kg
Primary cortical neurons; [9]
  degree of apoptosis relative to the staurosporine control: 58%
SH-SY5Y neuronal cells; 0,8 µM to 50 µM final concentration, 5 h, Fig. 3
  viability of the neuronal cells (Renilla luciferase activity): did not show any significant effect on the viability
SH-SY5Y neuronal cells
  viability of neuronal cells (Renilla luciferase activity): did not show any significantly reduced viability
[5]
  oral LD 50: 3,8 g/kg
[6]
  solubility in water: approximately 50 mg/l
[7]
  inhibitor of cytochrom P450 1A2 (CyP1A2): potent inhibitor
SH-SY5Y cells [2]
  degree of apoptosis relative to the staurosporine control: 68%
SH-SY5Y cells [2]; compound without staurosporine
  apoptotic effect by themselves: Neither thiabendazole nor derivatives thereof exhibited an apoptotic effect by themselves
Neural stem cells; 0,2 to 100 µM final concentration, 48hrs, Fig. 1
  differentiation of neural stem cells to neurons (relative induction of the class III β-tubulin gene promoter controlled luciferase signal): significantly stimulates the differentiation of neural stem cells to neurons
Neural stem cells; [10]
  differentiation of neural stem cells to neurons (relative induction of the class III β-tubulin gene promoter controlled luciferase signal): significantly stimulate the differentiation of neural stem cells to neurons
[8]
  oral LD 50: 3,6 g/kg
SH-SY5Y cells [1]; 0,8 µM thiabendazole plus 0,1 µM staurosporine, 5h, staurosporine alone = 100 %
  staurosporine induced apoptosis (caspase-3 and caspase-7 activity): 60%
SH-SY5Y cells [1]; 25 µM thiabendazole plus 0,1 µM staurosporine, 5h, staurosporine alone = 100 %
  staurosporine induced apoptosis (caspase-3 and caspase-7 activity): 10%
SH-SY5Y cells [1]; 50 µM thiabendazole plus 0,1 µM staurosporine, 5h, staurosporine alone = 100 %
  staurosporine induced apoptosis (caspase-3 and caspase-7 activity): 4%
SH-SY5Y cells [1]; 100 µM thiabendazole plus 0,1 µM staurosporine, 5h, staurosporine alone = 100 %
  staurosporine induced apoptosis (caspase-3 and caspase-7 activity): 3%
SH-SY5Y cells [1]; 1,6 µM thiabendazole plus 0,1 µM staurosporine, 5h, staurosporine alone = 100 %
  staurosporine induced apoptosis (caspase-3 and caspase-7 activity): 59%
SH-SY5Y cells [1]; 3,1 µM thiabendazole plus 0,1 µM staurosporine, 5h, staurosporine alone = 100 %
  staurosporine induced apoptosis (caspase-3 and caspase-7 activity): 44%
SH-SY5Y cells [1]; 6,3 µM thiabendazole plus 0,1 µM staurosporine, 5h, staurosporine alone = 100 %
  staurosporine induced apoptosis (caspase-3 and caspase-7 activity): 28%
SH-SY5Y cells [1]; 12,5 µM thiabendazole plus 0,1 µM staurosporine, 5h, staurosporine alone = 100 %
  staurosporine induced apoptosis (caspase-3 and caspase-7 activity): 19%

## Oc1ccc2nc(-c3cscn3)[nH]c2c1 [E, 2-(1,3-thiazol-4-yl)-benzimidazole-5-ol]
Primary cortical neurons; [9]
  degree of apoptosis relative to the staurosporine control: 60%
SH-SY5Y cells [2]
  degree of apoptosis relative to the staurosporine control: 83%
Neural stem cells; [10]
  differentiation of neural stem cells to neurons (relative induction of the class III β-tubulin gene promoter controlled luciferase signal): significantly stimulate the differentiation of neural stem cells to neurons

## c1ccc2[nH]c(-c3cncs3)nc2c1 [B, 2-(1,3-thiazol-5-yl)-benzimidazole]
Primary cortical neurons; [9]
  degree of apoptosis relative to the staurosporine control: 55%
SH-SY5Y cells [2]
  degree of apoptosis relative to the staurosporine control: 65%
Neural stem cells; [10]
  differentiation of neural stem cells to neurons (relative induction of the class III β-tubulin gene promoter controlled luciferase signal): significantly stimulate the differentiation of neural stem cells to neurons

## c1csc(-c2nc3ccccc3[nH]2)c1 [D, 2-(2-thienyl)-benzimidazole]
Primary cortical neurons; [9]
  degree of apoptosis relative to the staurosporine control: 49%
SH-SY5Y cells [2]
  degree of apoptosis relative to the staurosporine control: 65%
Neural stem cells; [10]
  differentiation of neural stem cells to neurons (relative induction of the class III β-tubulin gene promoter controlled luciferase signal): significantly stimulate the differentiation of neural stem cells to neurons
